Columns and labels:
Assay type in all cases: in vivo
corn (Zea mays) = assay: Test A pre-/postemergence plant response; details: for Corn plant response rating: visual injury, 0 to 100 scale (0 no effect, 100 complete control), approx. ten days
Summary of the method: (§1)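 Injury was scored visually after roughly ten days against untreated controls, 0 = no effect, 100 = complete control. Test chemicals in a surfactant-containing non-phytotoxic solvent were sprayed either onto soil preemergence or onto one- to two-leaf, 2–10 cm plants postemergence.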

[1] = system: barnyardgrass (Echinochloa crus-galli); assay: Test A pre-/postemergence plant response; details: for Barnyardgrass plant response rating: visual injury, 0 to 100 scale (0 no effect, 100 complete control), approx. ten days
Summary of the method: as §1

[2] = system: velvetleaf (Abutilon theophrasti); assay: Test A pre-/postemergence plant response; details: for Velvetleaf plant response rating: visual injury, 0 to 100 scale (0 no effect, 100 complete control), approx. ten days
Summary of the method: as §1

[3] = system: morningglory (Ipomoea spp.); assay: Test A pre-/postemergence plant response; details: for Morningglory plant response rating: visual injury, 0 to 100 scale (0 no effect, 100 complete control), approx. ten days
Summary of the method: as §1

[4] = system: large crabgrass (Digitaria sanguinalis); assay: Test A pre-/postemergence plant response; details: for Crabgrass, Large plant response rating: visual injury, 0 to 100 scale (0 no effect, 100 complete control), approx. ten days
Summary of the method: as §1

[5] = system: giant foxtail (Setaria faberii); assay: Test A pre-/postemergence plant response; details: for Foxtail, Giant plant response rating: visual injury, 0 to 100 scale (0 no effect, 100 complete control), approx. ten days
Summary of the method: as §1

[6] = system: pigweed (Amaranthus retroflexus); assay: Test A pre-/postemergence plant response; details: for Pigweed plant response rating: visual injury, 0 to 100 scale (0 no effect, 100 complete control), approx. ten days
Summary of the method: as §1

[7] = system: wheat (Triticum aestivum); assay: Test A pre-/postemergence plant response; details: for Wheat plant response rating: visual injury, 0 to 100 scale (0 no effect, 100 complete control), approx. ten days
Summary of the method: as §1

[8] = system: umbrella sedge (Cyperus difformis); assay: Test B flooded paddy test; details: for Plant response rating, Flood, Sedge, Umbrella: 250 g ai/ha, flooded paddy test, visual rating on 0 to 100 scale (0 no effect, 100 complete control) after 13 to 15 days; for Plant response rating, Sedge, Umbrella: Flood (flooded paddy test), 13 to 15 days; for Sedge, Umbrella plant response rating: Flood, 31 g ai/ha, scale 0 to 100 (0 no effect, 100 complete control)
Summary of the method: (§2)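 Greenhouse-held for 13 to 15 days, treated pots were compared visually with controls and scored 0–100 (0, no effect). Treatment had been made into paddy water kept at 3 cm above the soil, with plants at the 2-leaf stage.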

[9] = system: barnyardgrass (Echinochloa crus-galli); assay: Test B flooded paddy test; details: for Plant response rating, Flood, Barnyardgrass: 250 g ai/ha, flooded paddy test, visual rating on 0 to 100 scale (0 no effect, 100 complete control) after 13 to 15 days; for Plant response rating, Barnyardgrass: Flood (flooded paddy test), 13 to 15 days; for Barnyardgrass plant response rating: Flood, 31 g ai/ha, scale 0 to 100 (0 no effect, 100 complete control)
Summary of the method: as §2

rice (Oryza sativa) = assay: Test B flooded paddy test; details: for Plant response rating, Flood, Rice: 250 g ai/ha, flooded paddy test, visual rating on 0 to 100 scale (0 no effect, 100 complete control) after 13 to 15 days; for Plant response rating, Rice: Flood (flooded paddy test), 13 to 15 days; for Rice plant response rating: Flood, 31 g ai/ha, scale 0 to 100 (0 no effect, 100 complete control)
Summary of the method: as §2

[10] = system: ducksalad (Heteranthera limosa); assay: Test B flooded paddy test; details: for Plant response rating, Flood, Ducksalad: 250 g ai/ha, flooded paddy test, visual rating on 0 to 100 scale (0 no effect, 100 complete control) after 13 to 15 days; for Plant response rating, Ducksalad: Flood (flooded paddy test), 13 to 15 days; for Ducksalad plant response rating: Flood, 31 g ai/ha, scale 0 to 100 (0 no effect, 100 complete control)
Summary of the method: as §2

[11] = Postemergence, 125 g ai/ha, 0 to 100 scale where 0 is no effect and 100 is complete control
[12] = Preemergence, 125 g ai/ha, 0 to 100 scale, 0 = no effect, 100 = complete control
[13] = Preemergence, 500 g ai/ha, 0 to 100 scale, 0 = no effect, 100 = complete control
[14] = 62 g ai/ha, scale of 0 to 100 where 0 is no effect and 100 is complete control
[15] = 125 g ai/ha, scale 0 to 100, 0 is no effect, 100 is complete control

## CCc1ccc(-n2c(-c3cccc(C)c3)ncc(C(=O)C3=C(O)CCCC3=O)c2=O)cc1 [Compound 213]
Corn (Zea mays); [11]
  Plant response rating, Corn: 0
Corn (Zea mays); Postemergence, 500 g ai/ha
  Corn plant response rating: 20
Corn (Zea mays); [12]
  Plant response rating, Corn: 0
Corn (Zea mays); [13]
  Plant response rating, Corn: 0
[1]; [11]
  Plant response rating, Barnyardgrass: 20
[1]; Postemergence, 500 g ai/ha
  Barnyardgrass plant response rating: 100
[1]; [12]
  Plant response rating, Barnyardgrass: 0
[1]; [13]
  Plant response rating, Barnyardgrass: 30
[2]; [11]
  Plant response rating, Velvetleaf: 70
[2]; Postemergence, 500 g ai/ha
  Velvetleaf plant response rating: 60
[2]; [12]
  Plant response rating, Velvetleaf: 40
[2]; [13]
  Plant response rating, Velvetleaf: 60
[3]; [11]
  Plant response rating, Morningglory: 60
[3]; Postemergence, 500 g ai/ha
  Morningglory plant response rating: 100
[3]; [13]
  Plant response rating, Morningglory: 60
[4]; [11]
  Plant response rating, Crabgrass, Large: 20
[4]; Postemergence, 500 g ai/ha
  Crabgrass, Large plant response rating: 50
[4]; [12]
  Plant response rating, Crabgrass, Large: 0
[4]; [13]
  Plant response rating, Crabgrass, Large: 50
[5]; [11]
  Plant response rating, Foxtail, Giant: 10
[5]; Postemergence, 500 g ai/ha
  Foxtail, Giant plant response rating: 40
[5]; [12]
  Plant response rating, Foxtail, Giant: 10
[5]; [13]
  Plant response rating, Foxtail, Giant: 30
[6]; [11]
  Plant response rating, Pigweed: 80
[6]; Postemergence, 500 g ai/ha
  Pigweed plant response rating: 100
[6]; [12]
  Plant response rating, Pigweed: 50
[6]; [13]
  Plant response rating, Pigweed: 90
[7]; [11]
  Plant response rating, Wheat: 0
[7]; Postemergence, 500 g ai/ha
  Wheat plant response rating: 0
[7]; [12]
  Plant response rating, Wheat: 0
[7]; [13]
  Plant response rating, Wheat: 0
[8]
  Plant response rating, Flood, Sedge, Umbrella: 90
  Sedge, Umbrella plant response rating: 65
[8]; [14]
  Plant response rating, Sedge, Umbrella: 80
[8]; [15]
  Plant response rating, Sedge, Umbrella: 85
[9]
  Plant response rating, Flood, Barnyardgrass: 30
  Barnyardgrass plant response rating: 0
[9]; [14]
  Plant response rating, Barnyardgrass: 0
[9]; [15]
  Plant response rating, Barnyardgrass: 0
Rice (Oryza sativa)
  Plant response rating, Flood, Rice: 20
  Rice plant response rating: 0
Rice (Oryza sativa); [14]
  Plant response rating, Rice: 0
Rice (Oryza sativa); [15]
  Plant response rating, Rice: 0
[10]
  Plant response rating, Flood, Ducksalad: 100
  Ducksalad plant response rating: 75
[10]; [14]
  Plant response rating, Ducksalad: 85
[10]; [15]
  Plant response rating, Ducksalad: 90

## O=C1CCCC(O)=C1C(=O)c1cnc(-c2ccccc2)n(C2CCCCCCC2)c1=O [Compound 215]
Corn (Zea mays); [11]
  Plant response rating, Corn: 0
Corn (Zea mays); Postemergence, 500 g ai/ha
  Corn plant response rating: 30
Corn (Zea mays); [12]
  Plant response rating, Corn: 0
Corn (Zea mays); [13]
  Plant response rating, Corn: 0
[1]; [11]
  Plant response rating, Barnyardgrass: 90
[1]; Postemergence, 500 g ai/ha
  Barnyardgrass plant response rating: 100
[1]; [12]
  Plant response rating, Barnyardgrass: 0
[1]; [13]
  Plant response rating, Barnyardgrass: 20
[2]; [11]
  Plant response rating, Velvetleaf: 100
[2]; Postemergence, 500 g ai/ha
  Velvetleaf plant response rating: 100
[2]; [12]
  Plant response rating, Velvetleaf: 0
[2]; [13]
  Plant response rating, Velvetleaf: 70
[3]; [11]
  Plant response rating, Morningglory: 100
[3]; Postemergence, 500 g ai/ha
  Morningglory plant response rating: 100
[3]; [12]
  Plant response rating, Morningglory: 0
[3]; [13]
  Plant response rating, Morningglory: 70
[4]; [11]
  Plant response rating, Crabgrass, Large: 40
[4]; Postemergence, 500 g ai/ha
  Crabgrass, Large plant response rating: 70
[4]; [12]
  Plant response rating, Crabgrass, Large: 0
[4]; [13]
  Plant response rating, Crabgrass, Large: 60
[5]; [11]
  Plant response rating, Foxtail, Giant: 40
[5]; Postemergence, 500 g ai/ha
  Foxtail, Giant plant response rating: 80
[5]; [12]
  Plant response rating, Foxtail, Giant: 10
[5]; [13]
  Plant response rating, Foxtail, Giant: 30
[6]; [11]
  Plant response rating, Pigweed: 90
[6]; Postemergence, 500 g ai/ha
  Pigweed plant response rating: 100
[6]; [12]
  Plant response rating, Pigweed: 20
[6]; [13]
  Plant response rating, Pigweed: 90
[7]; [11]
  Plant response rating, Wheat: 0
[7]; Postemergence, 500 g ai/ha
  Wheat plant response rating: 0
[7]; [12]
  Plant response rating, Wheat: 0
[7]; [13]
  Plant response rating, Wheat: 0
[8]
  Plant response rating, Flood, Sedge, Umbrella: 90
  Sedge, Umbrella plant response rating: 0
[8]; [14]
  Plant response rating, Sedge, Umbrella: 0
[8]; [15]
  Plant response rating, Sedge, Umbrella: 75
[9]
  Plant response rating, Flood, Barnyardgrass: 40
  Barnyardgrass plant response rating: 0
[9]; [14]
  Plant response rating, Barnyardgrass: 0
[9]; [15]
  Plant response rating, Barnyardgrass: 30
Rice (Oryza sativa)
  Plant response rating, Flood, Rice: 15
  Rice plant response rating: 0
Rice (Oryza sativa); [14]
  Plant response rating, Rice: 0
Rice (Oryza sativa); [15]
  Plant response rating, Rice: 0
[10]
  Plant response rating, Flood, Ducksalad: 85
  Ducksalad plant response rating: 70
[10]; [14]
  Plant response rating, Ducksalad: 75
[10]; [15]
  Plant response rating, Ducksalad: 85

## CCCn1c(-c2cc(F)cc(F)c2)ncc(C(=O)C2=C(O)CC(C)(C)CC2=O)c1=O [Compound 224]
Corn (Zea mays); [11]
  Plant response rating, Corn: 10
Corn (Zea mays); Postemergence, 500 g ai/ha
  Corn plant response rating: 50
Corn (Zea mays); [12]
  Plant response rating, Corn: 20
Corn (Zea mays); [13]
  Plant response rating, Corn: 20
[1]; [11]
  Plant response rating, Barnyardgrass: 90
[1]; Postemergence, 500 g ai/ha
  Barnyardgrass plant response rating: 90
[1]; [12]
  Plant response rating, Barnyardgrass: 0
[1]; [13]
  Plant response rating, Barnyardgrass: 90
[2]; [11]
  Plant response rating, Velvetleaf: 100
[2]; Postemergence, 500 g ai/ha
  Velvetleaf plant response rating: 100
[2]; [12]
  Plant response rating, Velvetleaf: 50
[2]; [13]
  Plant response rating, Velvetleaf: 80
[3]; [11]
  Plant response rating, Morningglory: 100
[3]; Postemergence, 500 g ai/ha
  Morningglory plant response rating: 100
[3]; [13]
  Plant response rating, Morningglory: 30
[4]; [11]
  Plant response rating, Crabgrass, Large: 70
[4]; Postemergence, 500 g ai/ha
  Crabgrass, Large plant response rating: 100
[4]; [12]
  Plant response rating, Crabgrass, Large: 70
[4]; [13]
  Plant response rating, Crabgrass, Large: 100
[5]; [11]
  Plant response rating, Foxtail, Giant: 70
[5]; Postemergence, 500 g ai/ha
  Foxtail, Giant plant response rating: 100
[5]; [12]
  Plant response rating, Foxtail, Giant: 20
[5]; [13]
  Plant response rating, Foxtail, Giant: 70
[6]; [11]
  Plant response rating, Pigweed: 100
[6]; Postemergence, 500 g ai/ha
  Pigweed plant response rating: 100
[6]; [12]
  Plant response rating, Pigweed: 70
[6]; [13]
  Plant response rating, Pigweed: 100
[7]; [11]
  Plant response rating, Wheat: 0
[7]; Postemergence, 500 g ai/ha
  Wheat plant response rating: 60
[7]; [12]
  Plant response rating, Wheat: 0
[7]; [13]
  Plant response rating, Wheat: 30
[8]
  Plant response rating, Flood, Sedge, Umbrella: 75
  Sedge, Umbrella plant response rating: 0
[8]; [14]
  Plant response rating, Sedge, Umbrella: 0
[8]; [15]
  Plant response rating, Sedge, Umbrella: 0
[9]
  Plant response rating, Flood, Barnyardgrass: 30
  Barnyardgrass plant response rating: 0
[9]; [14]
  Plant response rating, Barnyardgrass: 0
[9]; [15]
  Plant response rating, Barnyardgrass: 0
Rice (Oryza sativa)
  Plant response rating, Flood, Rice: 60
  Rice plant response rating: 0
Rice (Oryza sativa); [14]
  Plant response rating, Rice: 0
Rice (Oryza sativa); [15]
  Plant response rating, Rice: 0
[10]
  Plant response rating, Flood, Ducksalad: 75
  Ducksalad plant response rating: 0
[10]; [14]
  Plant response rating, Ducksalad: 0
[10]; [15]
  Plant response rating, Ducksalad: 0
